Experiment [1] concerns female Albino Wistar rats. The experiment in a line: glucose tolerance test. The class given is in vivo, rat. The settings on record: six month old female Albino Wistar rats; 25, 50, 75 mg/kg body wt daily for four months; 6 h fast, 2 g/kg intraperitoneally, blood at 0-120 min; p<0.01 ResArgin, p<0.05 resveratrol. How it is done:
(§1) To determine the efficacy of resveratrol-arginine conjugate, six month old female Albino Wistar rats were divided into seven groups (six rats per group) and given the following daily treatment for four months:
(§2) Group 2: 25 mg ResArgin/kg body wt; Group 3: 50 mg ResArgin/kg body wt; Group 4: 75 mg ResArgin/kg body wt; Group 5: 25 mg Resveratrol/kg body wt; Group 6: 50 mg Resveratrol/kg body wt;
Group 7: 75 mg Resveratrol/kg body wt. In one embodiment, glucose tolerance levels were tested via a glucose tolerance test and analysis was performed. Compared to the Control group, glucose tolerance was improved in the ResArgin and resveratrol groups (p<0.01 and p<0.05 respectively) over the experimental period.
In one embodiment, glucose tolerance tests were performed after having the rats fast for 6 hours and injecting 2 g/kg body weight intraperitoneally. Blood was then collected from the tail vein at 0, 15, 30, 60 and 120 minutes after injection.

Experiment [2] relates to female Albino Wistar rats. Kind of experiment: hair regrowth assay. As to conditions: six month old female Albino Wistar rats; 25, 50, 75 mg/kg body wt daily for four months; dorsal hair plucked from 1.5 cm×1.5 cm, scored two weeks later from digital photographs. In kind it is in vivo, rat. How it is done: as §1, §2
In another embodiment, hair regrowth assay was done and quantified. Compared to the Control group, hair regrowth was improved in the ResArgin and resveratrol groups over the experimental period.
In the hair regrowth assay, dorsal hair was removed by plucking from a square of approximately 1.5 cm×1.5 cm. Hair growth and re-growth was scored two weeks later on the basis of digital photographs.

From patent US20170119640A1, “Methods of Improving Glucose Tolerance, Hair Regrowth, and Bio-Availability” (priority 2015, published 2017) come the findings set out here.

In the case of `Oc1ccc(C=Cc2cc(O)cc(O)c2)cc1` [resveratrol], the “glucose tolerance compared to the Control group” value in experiment [1] is reported as “improved”. Further, the “hair regrowth compared to the Control group” value in experiment [2] is recorded as “improved”.
